Experimental data published in the NIST ThermoML archive (doi:10.1021/je050514j).

Columns and labels:
[1] = refractive index (Na D-line) (dimensionless); conditions: 298.15 K; 101.33 kPa; Liquid; Standard Abbe refractometry
[2] = xn = mol fraction of the nth substance listed; conditions: 313.15 K, Fluid (supercritical or subcritical phases), x1 = 1

CCOC(C)=O [ethyl acetate]
Conditions | refractive index
[1] | 1.3702

Conditions | mass density [kg/m3]
298.15 K, 101.33 kPa, Liquid | 894.4
313.15 K, 1000 kPa, Fluid (supercritical or subcritical phases) | 876.9
313.15 K, 2000 kPa, Fluid (supercritical or subcritical phases) | 878
313.15 K, 3000 kPa, Fluid (supercritical or subcritical phases) | 878.9
313.15 K, 4000 kPa, Fluid (supercritical or subcritical phases) | 880
313.15 K, 5000 kPa, Fluid (supercritical or subcritical phases) | 881
313.15 K, 6000 kPa, Fluid (supercritical or subcritical phases) | 881.9
313.15 K, 7000 kPa, Fluid (supercritical or subcritical phases) | 882.9
313.15 K, 8000 kPa, Fluid (supercritical or subcritical phases) | 883.9
313.15 K, 9000 kPa, Fluid (supercritical or subcritical phases) | 884.9
313.15 K, 10000 kPa, Fluid (supercritical or subcritical phases) | 885.9

Conditions | Normal boiling temperature [°C]
Liquid, ebulliometry | 77.06

O=C=O [carbon dioxide] + CCOC(C)=O
[2]
Conditions | mass density [kg/m3]
1000 kPa | 17.8
2000 kPa | 37.3
3000 kPa | 58.6
4000 kPa | 83.4
5000 kPa | 112.5
6000 kPa | 148.7
7000 kPa | 197.5
8000 kPa | 276.7
9000 kPa | 482.6
10000 kPa | 627.3

O=C=O [carbon dioxide]
313.15 K, Fluid (supercritical or subcritical phases)
Conditions | mass density [kg/m3]
1000 kPa | 17.8
2000 kPa | 37.3
3000 kPa | 58.6
4000 kPa | 83.4
5000 kPa | 112.5
6000 kPa | 148.7
7000 kPa | 197.5
8000 kPa | 276.7
9000 kPa | 482.6
10000 kPa | 627.3
